Experimental data: patent publication US20230332103A1, “Methods and Compositions for Generating Human Forebrain Neural Progenitor Cells and for Maturation Thereof to Parvalbumin+ Interneurons” (Trailhead Biosystems Inc., priority 2021, published 2023)
Where “and” joins values, the source holds several entries; their conditions need not be identical. Identical values can stand only once. Entries after “also recorded” stand apart in the source; their conditions may differ.

Columns and labels:
[1] = test system: stage 2 neural stem cells; test: factor criticality analysis (dynamic profile analysis) of stage 3 recipe; format: cell-based, human; parameters: unit not given here; settings: other five factors present; for expression level of DLX1 when the effector is removed: 220 with all six factors; for expression level of LHX6 when the effector is removed: 240 with all six factors; for expression level of ASCL1 when the effector is removed: 1650 with all six factors
Experimental: To assess the impact of the elimination of each validated factor, dynamic profile analysis was used and compared the expression level of genes of interest in absence of each finalized factor while others are present. […] In the stage 3 recipe, each of the six finalized factors were removed while the other five factors remained present and the expression levels of ASCL1, DLX1 and LHX6 were assessed compared to the presence of all six factors. […] As expected, in the absence of IGF-1, the value of DLX1 increases to 410, however, ASCL1 and LHX6 decreased to 1390 and 220, respectively.

[2] = test system: stage 2 neural stem cells (cells treated with stage 1 and stage 2 media); test: HD-DoE experiment for stage 3 recipe, optimized for ASCL1; format: cell-based, human; settings: for factor contribution on expression of ASCL1: positive, model optimized for maximum expression of ASCL1 at 1700, FIG. 9
Experimental: To further guide the cells to medial ganglionic eminence progenitor fate, an additional HD-DoE experiment was performed for 3 days on cells that were treated with stage 1 and stage 2 media for total of 6 days prior to start of the experiment. This experiment included 13 effectors, LDN193189, A8301, GNF5837, AZD3147, GSI-XX, Takinib, PD0325901, PD173074, BLU9931, IGF-1, MHY1485, Purmorphamine and Prostratin. In this model, we focused on maximum expression of genes expressed in neuronal progenitor cells in medial ganglionic eminence (MGE) region including ASCL1, LHX6 and DLX1 (Silberberg et al. (2016) Neuron 92:59-74). When the model was optimized for maximum expression of ASCL1 at 1700, A8301, GSI-XX, Purmorphamine and Takinib, which is an inhibitor of TAK1 pathway, had the highest factor contributions, 18.1, 14.1, 12.7 and 10.1 respectively. […]

[3] = test system: human pluripotent stem cells; test: additional HD-DoE experiment for stage 1 (forebrain differentiation from pluripotency), optimized for FEZF2; format: cell-based; settings: dynamic profile, FIG. 6
Experimental: To identify the recipe for stage 1 of differentiation, 96 different combinations of effectors generated using Design-of-Experiments compression through D-optimality were robotically prepared. The effector combinations were prepared in a basal media and were subsequently added to the cells, which were then allowed to differentiate. Three days later RNA extraction was performed, and gene expression was obtained using quantitative PCR analysis. The data were normalized and modeled using partial least squares regression analysis to the effector design, resulting in the generation of gene-specific models, which after model tuning for maximal Q2 predictive power, provided explanation of the effectors ability to control the expression of individual genes, combinatorially, and individually. Solutions within the tested space could then be explored to address desirability.
To further enhance the conditions for forebrain differentiation from pluripotency, an additional HD-DoE experiment was performed. Additional gene regulatory models were obtained that were used for preparation of the differentiation protocol. The factors in this experiment included LDN193189, PD173074, BLU9931, Purmorphamine, SC79, MK2206, ZM336372, PD0325901, CHIR99021, XAV939, UCLA-GP130, Tofacitinib and GO6983. […] Dynamic profile analysis was also used to assess the interaction between the effectors.

[4] = test system: forebrain-committed neural stem cells (stage 1 neural stem cells); test: HD-DoE 12-factor experiment for stage 2 recipe, optimized for NKX2-1; format: cell-based, human; settings: for impact on expression of NKX2-1: model maximized for NKX2-1 / dynamic profile, FIG. 7 and 8
Experimental: To further guide the differentiation of forebrain-committed neural stem cells to ventral forebrain neural stem cells at stage 2, a HD-DoE experiment was performed for 3 days after termination of stage 1 treatment. At this time, we focused on maximum expression of NKX2-1 that is expressed in ventral forebrain region and minimum expression of PAX6 that is expressed in dorsal forebrain region. This 12-factor experiment included LDN193189, BMP7, PD0325901, MK2206, A8301, XAV939, CHIR99021, Purmorphamine, SANT-1, AGN193109, TTNPB and GSI-XX.

MGE progenitor cells = test: HD-DoE 12-factor experiment for stage 4 recipe, optimized for MEF2C; format: cell-based, human
Text: These effectors are small molecules or proteins. They are commonly used during stepwise differentiation of stem cells to specific fates. The choice of the effectors was based on current literature on neural induction in forebrain region of developing brain and differentiation of stem cells to neural progenitors.
To evaluate the effectors, experiments with at least 8 factors were designed that can assess the response of cells to 48 or more different combinations of effectors in a range of concentrations. To analyze the models, we focused on expression of genes involved in development and patterning of the forebrain interneurons maturation including LHX6 (Yuan et al. (2018) Elife, 7:e37382), DLX5 (Wang et al. (2010) J. Neuroscience 30:5334-5345), ASCL1 (Shi et al. (2016) J. Biol. Chem. 291:13560-13570). At later stages we focused on interneuron maturation genes including Parvalbumin and absence of somatostatin (Horn and Nicoll (2018) Proc. Natl. Acad. Sci. 115:589-594). The impacts of each effector on gene expression level are defined by a parameter called factor contribution that is calculated for each effector during the modeling.
To identify the recipe of stage 4 of differentiation, 48 different combinations of effectors generated using Design-of-Experiments compression through D-optimality were robotically prepared. The effector combinations were prepared in a basal media and were subsequently added to the cells, which were then allowed to differentiate. Three days later RNA extraction was performed, and gene expression was obtained using quantitative PCR analysis. The data was normalized and modeled using partial least squares regression analysis to the effector design, resulting in the generation of gene-specific models, which after model tuning for maximal predictive power, provided explanation of the effectors ability to control the expression of individual genes, combinatorically, and individually. Solutions within the tested space could then be explored to address desirability. […] Valproic Acid can inhibit histone deaceylases and increase γ-aminobutyric acid (GABA). […] GDNF is the […] Glial cell line-derived neurotrophic factor and can activate the GDNF pathway.
To find the set of factors that have the potential to optimize MEF2C in this experiment, a new assessment was done through dynamic profile analysis with focus on maximal expression of MEF2C (FIG. 20).

[5] = test system: human pluripotent stem cells; test: HD-DoE 12-factor experiment for stage 1 recipe, gene expression by quantitative PCR after 3 days; format: cell-based
Text: This example utilizes a method of High-Dimensional Design of Experiments (HD-DoE), as previously described in Bukys et al. (2020) […] 23:101346. The method employs computerized design geometries to simultaneously test multiple process inputs and offers mathematical modeling of a deep effector/response space. The method allows for finding combinatorial signaling inputs that control a complex process, such as during cell differentiation. It allows testing of multiple plausible critical process parameters, as such parameters impact output responses, such as gene expression. Because gene expression provides hallmark features of the phenotype of, for example, a human cell, the method can be applied to identify, and understand, which signaling pathways control cell fate. In the current example, the HD-DOE method was applied with the intent to find conditions for induction of […] neural progenitor-expressed genes, directly from the pluripotent stem cell state. To develop the recipe for each stage, the impact of agonists and antagonists of multiple signaling pathways (herein called effectors) on the expression of two sets of 53 pre-selected genes, after a 3-day treatment, has been tested and modeled. These effectors are small molecules or proteins that are commonly used during stepwise differentiation of stem cells to specific fates. Choice of the effectors were based on current literature on neural induction in forebrain region of developing brain and differentiation of stem cells to neural progenitors. To test the effectors, experiments with at least 8 factors were designed that can assess the response of cells to 48 or more different combinations of effectors in a range of concentrations. To analyze the models, we focused on expression of genes involved in development and patterning of the anterior neuroectoderm and forebrain including OTX2 (Hoch et al. (2015) Cell Reports 12:482-494), SIX3 (Lagutin et al. (2003) Genes & Development 17:368-379) and FEZF2 (Zhang et al. (2014) Development 141:4794-[…]). At later stages we focused on dorsoventral patterning of telencephalon and gene expressed in ventral forebrain including NKX2-1 and absence of PAX6 which is a dorsal forebrain marker (Stoykova et al. (2000) J. Neurosci. 20:8042-8050). The impact of each effector on gene expression level is defined by a parameter called factor contribution that is calculated for each effector during the modeling. To identify the recipe for stage 1 of differentiation, 96 different combinations of effectors generated using Design-of-Experiments compression through D-optimality were robotically prepared. The effector combinations were prepared in a basal media and were subsequently added to the cells, which were then allowed to differentiate. Three days later RNA extraction was performed, and gene expression was obtained using quantitative PCR analysis. […] Solutions within the tested space could then be explored to address desirability. Optimizing for maximal expression of SIX3 at 3300 and FEZF2 1355 expression values led to robust solutions. This model was derived from testing 12 effectors including AGN193109, LDN193189, CHIR99021, XAV939, IGF2, Purmorphamine, 4-oxo-RA, TTNPB, SR11237, FGF8, PD0325901 and […]. […] The model was also optimized for maximum expression of FEZF2 separately at 3576 expression value to find any additional factors that can boost expression of forebrain genes. […] To find the set of factors that have the potential to optimize all 3 genes in this experiment, a new assessment was done through dynamic profile analysis with focus on maximal expression of OTX2, FEZF2 and SIX3.

[6] = dynamic profile analysis, FIG. 10
[7] = dynamic profile analysis, FIG. 4

## Cc1cccc(-c2nn(C(=S)Nc3ccccc3)cc2-c2ccnc3ccccc23)n1 [A8301]
[1]
  expression level of DLX1 when the effector is removed: did not change significantly
  expression level of LHX6 when the effector is removed: did not change significantly
  expression level of ASCL1 when the effector is removed: 1000
[2]; [6]
  impact on expression of ASCL1: positive trends; also recorded: Positive impact
  impact on expression of DLX1: did not have a significant negative impact
  impact on expression of LHX6: positive trends; also recorded: Positive impact
[2]
  factor contribution on expression of ASCL1: 18.1 and 18

## Cc1ccc(NC(=O)Nc2cc(C(F)(F)F)ccc2F)cc1Nc1ccc2c(c1)NC(=O)/C2=C\c1ccc[nH]1 [GNF5837]
[1]
  expression level of DLX1 when the effector is removed: did not have a significant impact
  expression level of LHX6 when the effector is removed: 160
  expression level of ASCL1 when the effector is removed: 1300
[2]
  factor contribution on expression of ASCL1: 9.4

## COc1ccc2c(c1)c(C1=C(c3c[nH]c4ccccc34)C(=O)NC1=O)cn2CCCN(C)C [GO6983]
[3]
  impact on expression of FEZF2: positive impact

## NC1(c2ccc(-c3nc4ccn5c(=O)[nH]nc5c4cc3-c3ccccc3)cc2)CCC1 [MK2206]
[4]
  impact on expression of NKX2-1: increase its expression level
[3]
  impact on expression of FEZF2: positive impact

## Cc1nn(-c2ccccc2)c(C)c1/C=N/N1CCN(Cc2ccccc2)CC1 [SANT-1]
[4]
  impact on expression of NKX2-1: negative impact
[4]; negative role, model optimized for maximum expression of NKX2-1, FIG. 7
  factor contribution on expression of NKX2-1: 26.3

## NC(=O)c1ccc(-c2nc(-c3ccc4c(c3)OCO4)c(-c3ccccn3)[nH]2)cc1 [SB431542]
MGE progenitor cells; dynamic profile analysis, FIG. 20
  impact on expression of MEF2C: negative effect
MGE progenitor cells; significant negative effect, model optimized for maximal expression of MEF2C
  factor contribution on expression of MEF2C: 7.9

## C/C(=C\c1ccc(C(=O)O)cc1)c1ccc2c(c1)C(C)(C)CCC2(C)C [TTNPB]
[5]; FIG. 2 legend, model optimized for maximum expression of SIX3 as printed
  factor contribution, important input for high expression of SIX3: 23.7
[5]; [7]
  impact on expression of OTX2: negative impact
  impact on expression of SIX3: negative impact
[5]; positive impact, model optimized for maximum expression of FEZF2
  factor contribution on expression of FEZF2: 24
[5]; significant negative effect, model optimized for maximal expression of SIX3
  factor contribution on expression of SIX3: 21
[5]; significant negative impact, model of maximum expression of OTX2
  factor contribution on expression of OTX2: 29 and 28.8
[4]
  impact on expression of NKX2-1: negative impact

## CCCn1/c(=N/C(=O)c2cccc(C(N)=O)c2)[nH]c2ccccc21 [Takinib]
[1]
  expression level of DLX1 when the effector is removed: 180
  expression level of LHX6 when the effector is removed: 170
[2]
  factor contribution on expression of ASCL1: 10.1
